The values below come from PMC9376946, “Peptide-RNA Coacervates as a Cradle for the Evolution of Folded Domains” (Journal of the American Chemical Society, 2022).

In series [1] the test system is polyU. The experiment in a line: CW-EPR of PA-12 in the presence of polyU (bound, slow-motion population). It counts as binding. Particulars: spectral simulation. As for the experimental part:
(§1) Lyophilized, spin-labeled peptides were dissolved in Milli-Q water and centrifuged at 4000 rpm for 10 min to remove insoluble aggregates. The soluble fractions were used to prepare stock solutions of 250–500 μM peptide. Labeled peptide concentrations were determined by comparing the area under the curve of the EPR signal against that of standard solutions of 10–285 μM TEMPO. For the EPR measurements in D2O, 200 μL of the stock solution was lyophilized and re-dissolved in D2O. The concentration of the unlabeled peptide stock solutions was determined using the bicinchoninic acid assay (Thermo Fisher Scientific) and ranged from 0.8 to 1.2 mM peptide. A stock solution of 500 mM MES, pH 5.6 was used to adjust all samples to a final concentration of 50 mM MES, pH 5.6. Aliquots of 10 mg/mL polyuridylic acid (polyU; Sigma Aldrich) were prepared in Milli-Q water and diluted as necessary. For CW-EPR measurements, a quartz capillary of 0.6 mm i.d. and 0.84 mm o.d. was filled with 7–8 μL of the sample and sealed with Critoseal (Fisherbrand, Fisher Scientific) at one end. A single capillary was placed in an X-band EPR tube of 2 mm i.d. and 2.4 mm o.d. for measurements, except for spin concentration below 50 μM, where two capillaries were used.
(§2) Each sample was freshly prepared and the time to collect […] CW-EPR data was 30–40 min.
CW-EPR spectra were recorded on an Elexsys E500 X-Band (9.5 GHz) Bruker spectrometer using a high sensitivity resonator at room temperature. The following parameters were used: 0.1 mT field modulation amplitude, a 15 mT scan range, and 20 mW microwave power. Each scan was 42 s and at least 9 scans were accumulated for each data set. For samples with a high concentration of polyU or a low concentration of labeled peptide, at least 25–36 scans were collected to improve the signal to noise (S/N) ratio. Simulations of the spectra were performed using the “Chili” routine of EasySpin (www.easyspin.org).[21]
After characterizing the dynamic and structural properties of PA in solution, we proceeded to explore these properties upon interaction with the homopolymeric RNA molecule polyU. […] PA-12, like the unlabeled peptide, produced coacervates.[17] […] Using CW-EPR, binding of PA to RNA can be tracked through spin label dynamics. We initially kept the concentration of PA-12 constant at 150 μM and varied the amount of polyU. The CW-EPR spectra in Figure 3B indicate superposition of two populations, I and II. […] The relative intensity of II increases with the amount of polyU added, indicating binding of PA-12 to polyU. The percentage of II increased from 32% at 0.1 mg/mL polyU to 93% at 1 mg/mL polyU. Increasing to 2 mg/mL polyU and reducing the PA-12 concentration to 100 μM increased the population of II to 95% (Figures 3B and S15G). Such restricted motion and dynamic components have also been reported for proteins undergoing phase separation.[38],[39]

Series [2] relates to polyU. The experiment in a line: Coacervate (droplet) formation with polyU, optical microscopy. To be noted: for coacervate formation with polyU: 150 μM, 50 mM MES pH 5.6. The series is classed as physicochemical. As for the experimental part: Optical microscopy images of phase-separated samples were taken at the de Picciotto Cancer Cell Observatory Life Sciences Core Facilities (Weizmann Institute of Science) using a 100× objective (oil immersion) on a Leica DMI8 microscope with differential interface contrast. We used 1–2 μL of the sample to make a small drop in an imaging chamber produced by attaching a coverslip to a clean glass slide using a thin strip of double-sided tape (AJ Sign World). Images were processed using the software package Fiji (NIH).
as §1, §2

Values joined by “and” are separate entries in the source; they are usually repeats but may differ in a detail not shown here. Equal values may be shown once.

For “RIRRASVEELTCVPGIGPRLARRILERLA [PA-12, Precursor-Arg peptide in which position 12 has been modified with a cysteine and attached to an M-TEMPO spin label]”, the “population I (fast motion)” value in series [1] (30 μM PA-12, 1 mg/mL polyU) was 40 ± 5% and 40%; in series [1] (50 μM PA-12, 1 mg/mL polyU) it was 25 ± 5%; in series [1] (100 μM PA-12, 1 mg/mL polyU), 10 ± 4%; in series [1] (150 μM PA-12, 1 mg/mL polyU), 7 ± 2%; in series [1] (200 μM PA-12, 1 mg/mL polyU), 4 ± 2%. Besides, the “population II (slow motion, polyU-bound)” value in series [1] (30 μM PA-12, 1 mg/mL polyU) was 60 ± 5% and 60%; in series [1] (50 μM PA-12, 1 mg/mL polyU) it was 75 ± 5%; in series [1] (100 μM PA-12, 1 mg/mL polyU) it was 90 ± 4%; in series [1] (100 μM PA-12, 2 mg/mL polyU, 50 mM MES pH 5.6, room temperature) it was 95%; in series [1] (150 μM PA-12, 0.1 mg/mL polyU, 50 mM MES pH 5.6, room temperature), 32%; in series [1] (150 μM PA-12, 1 mg/mL polyU, 50 mM MES pH 5.6, room temperature), 93 ± 2% and 93%. Also, in series [1] (200 μM PA-12, 1 mg/mL polyU), the “population II (slow motion, polyU-bound)” value was 96 ± 2% and 96%. The “droplet formation with polyU” value in series [2] (50 μM PA-12 and above, 1 mg/mL polyU) is on record as “a significant number of droplets”. The “coacervate formation with polyU” value was “only a few tiny droplets were observed” in series [2] (0.35 or 0.5 mg/mL polyU) and “readily form coacervates” in series [2] (1 or 2 mg/mL polyU).
